Measured values taken from patent US7189711B2, “2, 3-benzodiazepine derivatives and pharmaceutical compositions containing the same as the active ingredient” (Egis Gyogyszergyar RT., priority 2000, dated 2007).

What was measured:
[1] = N-acetylation in rat liver slices (N-acetyl metabolite by HPLC); assay type: in vitro ADME, Wistar rats; conditions: 50 μM compound, 37° C.
Experimental: Reduction of the rate of N-acetylation due to ortho substitution
Liver slices of Wistar rats were incubated in oxigenized Krebs-Ringer solution at 37° C. in the presence of 50 μM of 2,3-benzodiazepine derivative examined. 0.5 ml aliquots were taken at the beginning of the examination, then after 30 and 60 minutes. Plasma proteins were precipitated with perchloric acid and, after alkalization, the 2,3-benzodiazepine derivatives were extracted with chloroform. The chloroform solutions were evaporated to dryness, the residue was dissolved in the corresponding eluent. The 2,3-benzodiazepine derivative used and the N-acetyl metabolite thereof were determined by high pressure liquid chromatography (Beckman System Gold HPLC, C-18 reversed-phase column) using an UV detector (at 240 nm). Different eluents were used for the optimal separation of the compounds. In case of the compound according to Example 1 and the corresponding 1-(4-amino-phenyl) analogue, the eluent consisted of a mixture of 50% of 2 mM heptafluoro-butyric acid, 25% of methanol and 25% of acetonitrile. For the compound according to Example 3 and the corresponding 1-(4-amino-phenyl) analogue, the eluent was a mixture of 50% of 2 mM heptafluorobutyric acid, 20% of methanol and 30% of acetonitrile. For the compound according to Example 4 and the corresponding 1-(4-amino-phenyl) analogue, the eluent consisted of a mixture of 50% of 2 mM heptafluorobutyric acid and 50% of acetonitrile.
The percentage of N-acetyl metabolite content of the sample taken at a certain time was calculated by dividing the hundredfold of the peak area of the metabolite with the sum of the peak areas of the 2,3-benzodiazepine derivative used and the N-acetyl metabolite. The results obtained are shown in Table 1 in which the concentrations determined after 0, 30 and 60 minutes are indicated.

male NMRI mice = experiment: Neuroprotective effect in magnesium chloride induced global cerebral ischemia in mice; assay type: in vivo; conditions: intraperitoneal, 30 minutes before i.v. saturated magnesium chloride; linear regression over four doses
Experimental: Neuroprotective Effect in Magnesium Chloride Induced Global Cerebral Ischemia in Mice
The examination was carried out on groups consisting of 10 male NMRI mice weighing 20–25 g. The compounds to be examined were dissolved in a mixture of 5 volumes of 5M aqueous hydrochloric acid and 95 volumes of water, then the pH value of the solution was adjusted to 3 by the addition of 1M aqueous sodium hydroxide solution. The solution obtained was administered intraperitoneally in a volume of 10 ml/kg. Each compound was tested at four increasing dose levels, and a further group of animals was treated only with the vehicle (the latter was the control group). 30 minutes after treatment, all mice received an intravenous injection of saturated aqueous magnesium chloride solution in a volume of 5 ml/kg. This injection caused an immediate cardiac arrest and complete cerebral ischemia. The increase in survival time (i.e. the interval between the injection of magnesium chloride and the last observable gasp) was considered as a measure of the neuroprotective effect according to Berga et al. [Berga, P. et al., Synergistic interactions between piracetam and dihydroergocristine in some animal models of cerebral hypoxia and ischaemia, Arzneim. -Forsch., 36, 1314–1320 (1986)]. Percentage changes in survival time were calculated in comparison to that measured in the control group, and, from the values obtained, the dose prolonging survival by 50% (PD50) was calculated by linear regression analysis.

male Wistar rats = experiment: Duration of action in rats as assessed from the decrease in body core temperature (radiotelemetry); assay type: in vivo; conditions: intraperitoneal, mean of 6 animals
Experimental: Duration of Action in Rats as Assessed From the Decrease in Body Core Temperature
One week prior to treatments, 6 male Wistar rats were anaesthetized by administering 60 mg/kg of pentobarbital sodium [sodium 5-ethyl-5-(1-methylbutyl)barbiturate]intraperitoneally. Using sterile surgical procedures, TL11M2C50-PXT or TA10TA-F40 type radiotelemetry transmitters (Data Sciences International, St. Paul, Minn., USA) were implanted into the peritoneal cavity of the animals. The transmitters permitted continuous monitoring of the core body temperature. After implantation, the rats were treated with an antibiotic (benzathine-benzylpenicillin was administered in a dose of 1 ml/kg i.m.). [The chemical name of benzathine-benzylpenicillin: [2S-(2α,5α,6β)]-3,3-dimethyl-7-oxo-6-[(phenoxyacetyl)amino]-4-thia-1-azabicyclo[3.2.0]heptane-2-carboxylic acid]. The animals were housed individually in type 2 plastic rat cages with free access to food and tap water.
The compounds to be examined were dissolved in a mixture of 5 volumes of 5M aqueous hydrochloric acid and 95 volumes of water, then the pH value of the solution was adjusted to 3 by the addition of 1M aqueous sodium hydroxide solution. The solution obtained was administered intraperitoneally in a volume of 10 ml/kg.
Radio signals emitted by the transmitters were detected by RLA1000 or RLA2000 type receivers placed under each cage. Data were collected and saved by a Dataquest IV computerized data acquisition system. The computer was set to sample body temperature for 10 seconds in every second minute. Mean values for 30 min. periods over the whole day were calculated running the “sort utility” of the Dataquest IV system. The upper and lower limits of the evaluating routine were set to exclude biologically improbable values. Individual body temperature curves were averaged for the 6 animals.
Peak effect (PE) was measured as the maximum decrease in body temperature in comparison to the last value prior to treatment (control value). Using the mean values, duration of action (D) of the compounds was determined. This is the time interval from treatment to return of body temperature to the control level.

| SMILES | PD50 (dose prolonging survival by 50%) (male NMRI mice) | D (duration of action, time from treatment to return of body temperature to control level) (male Wistar rats) | PE (peak effect, maximum decrease in body temperature vs. last value prior to treatment) (male Wistar rats) | also measured |
| --- | --- | --- | --- | --- |
| COc1ccc2c(c1)C(c1ccc(N)c(C)c1)=NN(C(C)=O)C(C)C2 (racemic) |  |  |  | melting point: 169 to 171 °C |
| CC(=O)N1N=C(c2ccc(N)c(C)c2)c2ccc(Cl)cc2CC1C (racemic) |  |  |  | melting point: 200 to 205 °C |
| CC(=O)N1N=C(c2ccc(N)cc2)c2cc(Cl)ccc2CC1C (stereo not shown) [Example 1a, 3-acetyl-1-(4-amino-phenyl)-4,5-dihydro-8-chloro-4-methyl-3H-2,3-benzo-diazepine] |  |  |  | Amount of N-acetyl metabolite in % ([1]; incubation time 0 min): 0%; Amount of N-acetyl metabolite in % ([1]; incubation time 30 min): 18%; Amount of N-acetyl metabolite in % ([1]; incubation time 60 min): 31% |
| CCC(=O)N1N=C(c2ccc(N)c(C)c2)c2cc(Cl)c(Cl)cc2CC1C (racemic) [Example 5, (±)-1-(4-Amino-3-methylphenyl)-4,5-dihydro-7,8-dichloro-4-methyl-3-propionyl-3H-2,3-benzodiazepine] | 12.3 mg/kg |  |  |  |
| CC(=O)N1N=C(c2ccc(N)cc2)c2cc(Cl)c(Cl)cc2CC1C (stereo not shown) [Example 4a, 3-acetyl-1-(4-amino-phenyl)-4,5-dihydro-7,8-dichloro-4-methyl-3H-2,3-benzo-diazepine, reference compound] | 11.0 mg/kg | 3.5 h | −1.72 Δ° C. |  |
| CC(=O)N1N=C(c2ccc(N)c(C)c2)c2cc(Cl)ccc2CC1C (racemic) [Example 1, (±)-3-Acetyl-1-(4-amino-3-methylphenyl)-4,5-dihydro-8-chloro-4-methyl-3H-2,3-benzodiazepine] | 4.6 mg/kg | 20 h | −2.34 Δ° C. |  |
| CC(=O)N1N=C(c2ccc(N)c(C)c2)c2cc(Cl)c(Cl)cc2CC1C (racemic) [Example 4, (±)-3-Acetyl-1-(4-amino-3-methylphenyl)-4,5-dihydro-7,8-dichloro-4-methyl-3H-2,3-benzodiazepine] | 9.0 mg/kg | 19 h | −3.09 Δ° C. |  |
| CC(=O)N1N=C(c2ccc(N)cc2)c2cc(Cl)ccc2CC1C (stereo not shown) [Example 1a, 3-acetyl-1-(4-amino-phenyl)-4,5-dihydro-8-chloro-4-methyl-3H-2,3-benzo-diazepine, reference compound] | 10.4 mg/kg |  |  |  |
| CCC(=O)N1N=C(c2ccc(N)c(C)c2)c2cc(Cl)ccc2CC1C (racemic) [Example 2, (±)-1-(4-Amino-3-methylphenyl)-4,5-dihydro-8-chloro-4-methyl-3-propionyl-3H-2,3-benzodiazepine] |  | 6 h | −2.04 Δ° C. |  |
| CC(=O)N1N=C(c2ccc(N)c(Cl)c2)c2cc(Cl)ccc2CC1C (racemic) [Example 3, (±)-3-Acetyl-1-(4-amino-3-chlorophenyl)-4,5-dihydro-8-chloro-4-methyl-3H-2,3-benzodiazepine] |  |  |  | melting point: 143 to 144 °C |
| CCC(=O)N1N=C(c2ccc(N)cc2)c2cc(Cl)c(Cl)cc2CC1C (stereo not shown) [Example 5a, 1-(4-aminophenyl)-4,5-dihydro-7,8-dichloro-4-methyl-3-propionyl-3H-2,3-benzo-diazepine, reference compound] | 14.6 mg/kg |  |  |  |
| CCC(=O)N1N=C(c2ccc(N)cc2)c2cc(Cl)ccc2CC1C (stereo not shown) [Example 2a, 1-(4-aminophenyl)-4,5-dihydro-8-chloro-4-methyl-3-propionyl-3H-2,3-benzo-diazepine, reference compound] |  | 4 h | −1.87 Δ° C. |  |
